From paper PMC9604325 (International Journal of Molecular Sciences, 2022)

Columns and labels:
[1] = test system: HT-22 cells; test: Resting cytosolic Ca2+ concentration, Fura2/Fluo3-loaded HT-22 cells; assay type: cell-based, mouse; settings: 2 μM Aβ(1-42), control 75 ± 8 nM, mean ± SEM of triplicates, n > 60 cells
Experimental: Cytosolic Ca^2+ imaging was assessed in the HT-22 cell culture with the fluorescent probe Fluo3-AM. […] The untread cells were regarded as the controls. […] Then, the cells were washed once with 1 mL of MLocke’s K5 buffer, and the 35 mm culture dishes were placed in the thermostatic plate at 37 °C (Warner Instrument Co., Hamden, CT, USA) of the Nikon Diaphot 300 inverted epifluorescence microscope (Tokyo, Japan) with an NCF Plan ELWD 40× objective (the pixel size of the images shown in this work was 0.2 μm). The images of the Fluo3-loaded cells were acquired with the Hamamatsu Orca-R^2 CCD camera (binning mode 2 × 2) with an excitation filter of 470 nm, a dichroic mirror of 510 nm with an emission filter of 520 nm, and a 0.3 s exposure time. […] The depletion of the Ca^2+ stores was triggered by adding 2 μM of the SERCA pump blocker Tg plus ethylene glycol tetraacetic acid (1 mM), in a Ca^2+-free Mlocke’s K5 buffer. Then, the SOCE was measured after the addition of 3 mM of CaCl2 to the Tg-containing medium. […] The activity of the RyR Ca^2+-leak channels was evaluated by incubation with 100 μM of the RyR antagonist ryanodine for 1 h in the HT-22 culture media. In all experiments with antagonists, we performed the respective dimethylsulfoxide vehicle controls. […]

[2] = test system: HT-22 cells; test: Cellular GSH level, monochlorobimane fluorescence; assay type: cell-based, mouse; settings: 2 μM Aβ(1-42), 2 h or 5 h; 10 μM MCB
Experimental: The cellular GSH level was monitored with MCB using fluorescence microscopy, as described in our previous work. Images were acquired with a Nikon Diaphot 300 epifluorescence microscope, with an excitation filter of 380 nm.
(A) Representative microscopy images
(B) Means of the average fluorescence intensity
Supplementary Figure S5. GSH levels are not altered after 2 h […]
37 ᵒC were washed once with MLocke’s K5 buffer and the plates were placed in the holder of the fluorescence microscope (37 ᵒC) for cell imaging before and after the addition of 10 μM MCB as described in the Material and Methods section.
Panel A: representative bright field and blue fluorescence images
(GS-MCB) acquired 2 min after MCB addition of untreated cells […]
exposure was 0.7 s and the scale bar inserted = 20 μm. Panel B: means of fluorescence intensity per pixel of HT-22 cells after 2 min of incubation with MCB (10 μM). The results shown are the […]
in GSH levels between untreated cells (control) and cells treated […]
(also on this page, place not known: 0 100 200 300 400 Fluorescenece (Intensity/pixel) µM Aβ(1-42) µM Aβ(1-42) n.s. n.s. Bright Blue Fluorescence Control 2h IJMS-1941218 field 2 2 of MCB 2 2 h 5 h) […]

[3] = biological target: T1, RyR (Mus musculus, UniProt E9Q401); test: Tg-induced Ca2+ release from stores in Fluo3-loaded HT-22 cells with the RyR antagonist ryanodine; assay type: cell-based
T1 construct: incubation with 100 μM of the RyR antagonist ryanodine for 1 h in the HT-22 culture media; endogenous in cells; host or cells: HT-22 (mouse hippocampal cell line)
T1 sequence (E9Q401 whole entry): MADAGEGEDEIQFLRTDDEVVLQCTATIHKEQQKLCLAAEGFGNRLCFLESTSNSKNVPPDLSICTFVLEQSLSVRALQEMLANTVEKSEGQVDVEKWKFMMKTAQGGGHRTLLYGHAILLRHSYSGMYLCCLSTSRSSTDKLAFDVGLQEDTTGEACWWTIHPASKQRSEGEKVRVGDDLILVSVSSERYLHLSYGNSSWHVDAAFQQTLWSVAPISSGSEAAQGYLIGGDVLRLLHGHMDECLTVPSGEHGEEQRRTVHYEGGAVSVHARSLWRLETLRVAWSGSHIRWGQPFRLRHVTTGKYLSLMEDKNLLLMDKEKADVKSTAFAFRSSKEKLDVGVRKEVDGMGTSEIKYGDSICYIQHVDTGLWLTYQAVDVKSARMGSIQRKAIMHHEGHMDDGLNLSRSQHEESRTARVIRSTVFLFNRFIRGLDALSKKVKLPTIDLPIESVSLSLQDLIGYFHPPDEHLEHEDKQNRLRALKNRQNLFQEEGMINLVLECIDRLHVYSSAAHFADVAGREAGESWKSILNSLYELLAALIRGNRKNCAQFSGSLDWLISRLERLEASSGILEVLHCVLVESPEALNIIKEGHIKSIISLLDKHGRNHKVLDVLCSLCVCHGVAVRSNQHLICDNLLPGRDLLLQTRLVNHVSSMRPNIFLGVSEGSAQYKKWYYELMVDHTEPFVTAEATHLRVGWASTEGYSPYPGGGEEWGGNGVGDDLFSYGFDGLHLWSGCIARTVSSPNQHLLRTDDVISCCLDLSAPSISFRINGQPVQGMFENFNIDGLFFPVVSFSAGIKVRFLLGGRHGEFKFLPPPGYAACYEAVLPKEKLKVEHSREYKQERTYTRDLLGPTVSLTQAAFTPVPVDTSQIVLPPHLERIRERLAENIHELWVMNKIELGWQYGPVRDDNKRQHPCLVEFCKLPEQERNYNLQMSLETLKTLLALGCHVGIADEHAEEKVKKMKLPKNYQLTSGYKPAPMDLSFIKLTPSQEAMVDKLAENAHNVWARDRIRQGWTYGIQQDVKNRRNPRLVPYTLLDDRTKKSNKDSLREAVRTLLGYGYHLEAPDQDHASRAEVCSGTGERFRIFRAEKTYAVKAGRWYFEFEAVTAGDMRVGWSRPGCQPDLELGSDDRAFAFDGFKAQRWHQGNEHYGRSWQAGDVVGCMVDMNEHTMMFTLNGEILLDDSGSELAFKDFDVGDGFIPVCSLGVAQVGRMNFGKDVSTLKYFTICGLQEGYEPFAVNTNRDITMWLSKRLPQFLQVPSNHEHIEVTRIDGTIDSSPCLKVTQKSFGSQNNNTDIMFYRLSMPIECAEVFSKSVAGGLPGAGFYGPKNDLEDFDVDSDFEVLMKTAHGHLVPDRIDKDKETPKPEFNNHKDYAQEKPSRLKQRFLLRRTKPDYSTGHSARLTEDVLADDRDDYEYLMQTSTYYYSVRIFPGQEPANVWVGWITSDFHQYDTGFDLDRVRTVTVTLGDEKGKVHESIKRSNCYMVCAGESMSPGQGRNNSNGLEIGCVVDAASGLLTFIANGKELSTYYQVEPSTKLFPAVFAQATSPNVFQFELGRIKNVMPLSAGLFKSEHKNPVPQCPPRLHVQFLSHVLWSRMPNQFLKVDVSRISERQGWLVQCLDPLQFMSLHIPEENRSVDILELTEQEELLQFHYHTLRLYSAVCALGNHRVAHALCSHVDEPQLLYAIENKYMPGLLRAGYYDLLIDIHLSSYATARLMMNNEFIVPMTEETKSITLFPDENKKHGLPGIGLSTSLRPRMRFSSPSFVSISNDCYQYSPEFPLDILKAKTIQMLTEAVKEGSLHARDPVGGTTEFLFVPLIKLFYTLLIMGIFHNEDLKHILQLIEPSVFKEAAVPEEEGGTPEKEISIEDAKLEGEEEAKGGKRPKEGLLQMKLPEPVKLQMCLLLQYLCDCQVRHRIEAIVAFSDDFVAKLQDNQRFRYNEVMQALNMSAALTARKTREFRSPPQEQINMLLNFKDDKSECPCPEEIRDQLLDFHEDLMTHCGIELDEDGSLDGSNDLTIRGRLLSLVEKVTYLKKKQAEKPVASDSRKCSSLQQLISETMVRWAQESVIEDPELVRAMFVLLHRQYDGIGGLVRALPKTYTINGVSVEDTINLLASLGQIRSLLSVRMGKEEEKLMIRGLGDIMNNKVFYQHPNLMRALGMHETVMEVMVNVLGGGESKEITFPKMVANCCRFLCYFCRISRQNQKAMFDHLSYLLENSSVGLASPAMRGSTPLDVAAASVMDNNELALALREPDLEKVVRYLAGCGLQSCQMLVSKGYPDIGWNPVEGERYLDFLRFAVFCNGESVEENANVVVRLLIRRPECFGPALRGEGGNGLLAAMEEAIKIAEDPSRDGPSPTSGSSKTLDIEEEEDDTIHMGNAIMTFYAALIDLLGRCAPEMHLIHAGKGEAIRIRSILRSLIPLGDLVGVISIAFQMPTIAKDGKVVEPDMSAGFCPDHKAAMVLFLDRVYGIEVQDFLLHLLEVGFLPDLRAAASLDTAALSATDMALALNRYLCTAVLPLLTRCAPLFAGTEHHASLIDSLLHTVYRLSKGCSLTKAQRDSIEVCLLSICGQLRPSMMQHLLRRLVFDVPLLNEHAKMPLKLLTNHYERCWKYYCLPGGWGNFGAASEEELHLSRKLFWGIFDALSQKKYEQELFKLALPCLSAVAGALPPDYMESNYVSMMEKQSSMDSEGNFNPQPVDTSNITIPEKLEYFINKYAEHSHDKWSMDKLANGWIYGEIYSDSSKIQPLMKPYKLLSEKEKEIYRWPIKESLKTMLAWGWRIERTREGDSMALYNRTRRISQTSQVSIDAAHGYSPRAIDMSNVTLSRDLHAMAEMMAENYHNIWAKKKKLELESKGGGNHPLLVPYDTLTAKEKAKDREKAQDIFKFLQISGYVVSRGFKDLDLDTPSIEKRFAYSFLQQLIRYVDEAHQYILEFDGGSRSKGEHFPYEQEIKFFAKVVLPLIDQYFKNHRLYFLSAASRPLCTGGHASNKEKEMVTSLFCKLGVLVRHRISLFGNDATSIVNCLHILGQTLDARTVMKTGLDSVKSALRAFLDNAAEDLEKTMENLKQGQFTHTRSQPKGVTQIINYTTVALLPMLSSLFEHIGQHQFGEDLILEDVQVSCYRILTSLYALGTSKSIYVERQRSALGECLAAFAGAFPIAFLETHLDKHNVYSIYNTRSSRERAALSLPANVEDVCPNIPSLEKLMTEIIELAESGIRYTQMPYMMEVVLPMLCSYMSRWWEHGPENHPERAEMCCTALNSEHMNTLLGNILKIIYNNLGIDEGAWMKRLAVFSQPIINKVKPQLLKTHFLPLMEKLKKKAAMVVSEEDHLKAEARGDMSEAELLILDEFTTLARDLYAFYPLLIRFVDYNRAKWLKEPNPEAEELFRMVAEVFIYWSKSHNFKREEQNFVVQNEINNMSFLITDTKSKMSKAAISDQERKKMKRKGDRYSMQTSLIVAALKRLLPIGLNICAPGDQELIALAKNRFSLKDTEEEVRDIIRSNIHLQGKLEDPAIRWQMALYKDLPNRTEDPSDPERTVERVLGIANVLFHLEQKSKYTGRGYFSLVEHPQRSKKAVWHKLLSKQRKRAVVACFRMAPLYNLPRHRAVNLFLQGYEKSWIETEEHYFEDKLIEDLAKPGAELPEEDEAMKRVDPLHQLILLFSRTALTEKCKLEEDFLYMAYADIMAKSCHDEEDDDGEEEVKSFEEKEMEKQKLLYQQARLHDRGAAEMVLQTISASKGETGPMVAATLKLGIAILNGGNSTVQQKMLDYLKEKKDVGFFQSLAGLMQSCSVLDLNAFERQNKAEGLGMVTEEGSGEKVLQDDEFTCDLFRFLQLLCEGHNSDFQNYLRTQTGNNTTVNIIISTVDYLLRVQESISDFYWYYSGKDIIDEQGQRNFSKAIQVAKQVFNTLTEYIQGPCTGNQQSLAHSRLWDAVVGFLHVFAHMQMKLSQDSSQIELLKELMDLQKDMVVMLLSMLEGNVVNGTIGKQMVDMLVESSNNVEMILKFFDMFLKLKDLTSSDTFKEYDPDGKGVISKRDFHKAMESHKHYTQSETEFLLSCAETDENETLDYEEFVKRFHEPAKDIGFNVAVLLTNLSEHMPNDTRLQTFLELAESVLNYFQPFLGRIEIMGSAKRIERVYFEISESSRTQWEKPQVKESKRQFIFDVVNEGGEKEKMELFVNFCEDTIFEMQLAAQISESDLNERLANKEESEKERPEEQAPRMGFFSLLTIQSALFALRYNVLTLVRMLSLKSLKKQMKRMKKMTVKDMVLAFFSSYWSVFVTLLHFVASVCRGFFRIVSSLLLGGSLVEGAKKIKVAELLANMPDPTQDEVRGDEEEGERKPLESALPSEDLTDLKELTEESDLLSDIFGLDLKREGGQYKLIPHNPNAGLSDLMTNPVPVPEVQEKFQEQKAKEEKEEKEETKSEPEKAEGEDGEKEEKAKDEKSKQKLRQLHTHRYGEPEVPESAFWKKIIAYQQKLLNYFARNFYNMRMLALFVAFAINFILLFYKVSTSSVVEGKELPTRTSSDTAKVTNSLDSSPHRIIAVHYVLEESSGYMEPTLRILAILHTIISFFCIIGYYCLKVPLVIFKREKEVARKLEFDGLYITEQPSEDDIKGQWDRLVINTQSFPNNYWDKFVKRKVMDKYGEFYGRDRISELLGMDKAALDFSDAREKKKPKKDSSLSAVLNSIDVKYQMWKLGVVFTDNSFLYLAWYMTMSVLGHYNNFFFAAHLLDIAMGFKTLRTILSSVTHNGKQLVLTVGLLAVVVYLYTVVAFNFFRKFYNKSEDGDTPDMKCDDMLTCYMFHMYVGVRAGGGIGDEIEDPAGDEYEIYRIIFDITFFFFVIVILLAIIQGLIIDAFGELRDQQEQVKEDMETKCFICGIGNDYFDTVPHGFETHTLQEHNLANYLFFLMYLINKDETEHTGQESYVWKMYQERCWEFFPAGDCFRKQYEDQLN
Experimental: (§1) Cytosolic Ca^2+ imaging was assessed in the HT-22 cell culture with the fluorescent probe Fluo3-AM. […] The untread cells were regarded as the controls. […] Then, the cells were washed once with 1 mL of MLocke’s K5 buffer, and the 35 mm culture dishes were placed in the thermostatic plate at 37 °C (Warner Instrument Co., Hamden, CT, USA) of the Nikon Diaphot 300 inverted epifluorescence microscope (Tokyo, Japan) with an NCF Plan ELWD 40× objective (the pixel size of the images shown in this work was 0.2 μm). The images of the Fluo3-loaded cells were acquired with the Hamamatsu Orca-R^2 CCD camera (binning mode 2 × 2) with an excitation filter of 470 nm, a dichroic mirror of 510 nm with an emission filter of 520 nm, and a 0.3 s exposure time. […] The depletion of the Ca^2+ stores was triggered by adding 2 μM of the SERCA pump blocker Tg plus ethylene glycol tetraacetic acid (1 mM), in a Ca^2+-free Mlocke’s K5 buffer. Then, the SOCE was measured after the addition of 3 mM of CaCl2 to the Tg-containing medium. […] The activity of the RyR Ca^2+-leak channels was evaluated by incubation with 100 μM of the RyR antagonist ryanodine for 1 h in the HT-22 culture media. In all experiments with antagonists, we performed the respective dimethylsulfoxide vehicle controls.

[4] = test system: HT-22 cells; test: Mitochondrial membrane potential, TMRE assay; assay type: cell-based, mouse
Experimental: Mitochondrial depolarization was monitored with the fluorescent dye TMRE, as previously described, with small changes. […] Then, the HT-22 culture dishes were placed in the thermostatic plate at 37 °C of the inverted epifluorescence microscope and the fluorescence kinetic was recorded at 556 nm excitation filter and a dichroic mirror of 580 nm with an emission filter of 590 nm and a time of exposure 0.01 s. To assess the level of the mitochondrial membrane depolarization, 5 μM of a potent mitochondrial oxidative phosphorylation uncoupler FCCP was added to the medium. The region of interest (ROI) tool of the HCImage software was used for the quantitative analysis. The average fluorescence intensity readings per pixel in the HT-22 cells were taken from several fields for a total number of 80 cells.

[5] = test system: HT-22 cells; test: Internalization of Aβ(1-42) in living HT-22 cells (red fluorescence of Aβ(1-42)*555, calibration curve); assay type: cell-based, mouse; settings: 2 μM Aβ(1-42) total (unlabeled plus Aβ(1-42)*555) in culture medium, 37 °C, 5% CO2, red fluorescence microscopy, calibration with Aβ(1-42)*555 in fixed permeabilized cells, mean ± SEM
Experimental: Then, the cells were washed once with 1 mL of MLocke’s K5, and the 35 mm dishes were placed in the holder of the microscope at 37 °C for RF imaging. The fluorescence microscopy images of the HT-22 cells were acquired with a Hamamatsu Orca-R^2 CCD camera (binning mode 2 × 2) camera (Hamamatsu, Hamamatsu-city, Japan) attached to a Nikon Diaphot 300 epifluorescence microscope (Tokyo, Japan) with an NCF Plan ELWD 40× objective, using an excitation filter of 556 nm and a dichroic mirror of 580 nm with an emission filter of 590 nm, and a 0.06 s exposure time. The ROI tool of the HCImage software was used for the quantitative analysis. The average fluorescence intensity readings per pixel in HT-22 cells were taken from several fields for a total number of 80 cells and after the subtraction of the autofluorescence. […]
Supplementary Figure S1. Calibration data were obtained with […]
medium of fixed and permeabilized HT-22 cells to calculate the internalized concentration of Aβ(1–42) in living HT-22 cells. The […]
monomers/L. The results shown are the mean ± SEM of
(also on this page, place not known: Fluorescence Intensity per pixel (A.U.))

[6] = test system: PDI; set-up: method as in earlier work; settings: up to 200 nM Aβ(1-42), HT-22 cell lysates, isomerase assay of ref 67; cited from earlier work
[7] = test system: mature cerebellar granule neurons; settings: 2 h of incubation; cited from earlier work
[8] = test system: store-operated calcium entry (SOCE) in HT-22 cells; test: SOCE Ca2+ imaging in Fluo3-loaded HT-22 cells (Tg-induced store release, then Ca2+ entry); assay type: cell-based, mouse
Experimental: as §1

[9] = biological target: T2, STIM1 (Mus musculus, UniProt P70302); test: Co-immunoprecipitation of STIM1 with anti-Aβ antibody from HT-22 lysates, Western blot; assay type: binding; settings: 250 nM Aβ(1-42), HT-22 cell lysates
T2 construct: endogenous in cells; host or cells: HT-22 cell lysate
Experimental: The HT-22 cells were lysed in a buffer: 25 mM of Tris(hydroxymethyl)aminomethane–HCl, pH 7.4, 150 mM of NaCl, 5 mM of ethylenediaminetetraacetic acid, 50 mM of NaF, 5 mM of NaVO3, 0.25% of Triton X-100, and 5 mM of methyl-β-cyclodextrin, supplemented with 1× […]^TM protease inhibitor cocktail. After cell centrifugation at 2000× g for 2 min at 4 °C, the supernatant was collected and supplemented with 50% glycerol. Bradford’s method was used to measure the protein concentration in HT22 lysates using the bovine serum albumin as the standard. The co-immunoprecipitation was carried out using the protein A/G PLUS-Agarose, following the instructions described by the manufacturer in the technical data sheet. […] Then, 10 μg of mouse anti-β-amyloid antibody was added to the Eppendorf tube and incubated for 1 h at 4 °C with continuous gentle shaking. Afterward, 50 μL of protein A/G PLUS-Agarose was added and incubated overnight at 4 °C with continuous shaking. […] The agarose beads were precipitated by centrifugation at 2500× g for 5 min at 4 °C in a refrigerated Eppendorf microcentrifuge. […] A centrifugation step (2500× g, 5 min at 4 °C) was performed in a refrigerated Eppendorf microcentrifuge after each washing step. […]

[10] = test system: HT-22 cells; test: Intracellular ROS, H2DCFDA oxidation; assay type: cell-based, mouse; settings: 2 μM Aβ(1-42), 10 μM H2DCFDA, p < 0.05
Experimental: For the detection of intracellular ROS levels, we measured the oxidation of H2DCFDA to the fluorescent compound dichlorofluorescein, as previously described, with minor modifications. […] Then, 10 μM of H2DCFDA was added to the medium and the fluorescence intensity was recorded every 15 s for 10 min with an excitation filter of 470 nm, and 510 nm dichroic mirror/520 nm emission filter, using an exposure time of 0.2 s.

[11] = test system: HT22 cells; test: Intracellular calcium response of Fluo3-loaded HT22 cells to cholinergic agonists; assay type: cell-based, mouse; settings: for intracellular calcium response in the majority of the cells: Fluo3-loaded HT22 cells
Experimental: as §1
Supplementary Figure S8. Representative kinetic traces of the average fluorescence intensity of Fluo3-loaded
HT22 cells (Ft/F0) recorded over time every 15 s intervals
Ca2+ entry mediated by cholinergic receptors. The data shown are the means ±SEM of n =16 cells.
(1 picture or pasted object on this page, not shown here)

Aβ(1-42): Unlabeled amyloid β peptide (1-42), synthesized and supplied by StabVida
intracellular Ca2+ concentration [Ca2+]i ([1]; 2 h): 81 ± 9 nM
intracellular Ca2+ concentration [Ca2+]i ([1]; 5 h): 82 ± 8 nM
GSH levels versus untreated cells [2]: not significantly different
Tg-induced Ca2+ released from the stores, compared with cells treated only with Aβ(1-42) ([3]; 2 μM Aβ(1-42) 2 h plus 100 μM ryanodine): three-fold higher
mitochondria membrane potential (TMRE ΔF/F0 before/after FCCP) versus control ([4]; 2 μM Aβ(1-42), 2 h or 5 h, p > 0.05): not altering the mitochondria membrane potential
concentration of internalized Aβ(1-42) monomers ([5]; 2 h): 62 ± 11 nM
concentration of internalized Aβ(1-42) monomers ([5]; 5 h): 135 ± 15 nM
inhibition of PDI activity [6]: did not significantly inhibit
internalized Aβ(1-42) [7]: about 193 ± 21 nM
inhibition of Ca2+ released from stores after Tg addition ([8]; 2 μM Aβ(1-42) 2 h plus 3 μM BTP2 15 min, mean ± SEM): 42 ± 6%
inhibition of Ca2+ release from the stores after Tg addition, compared with control ([8]; 2 μM Aβ(1-42), 2 h, 37 °C, 2 μM Tg, Ca2+-free medium, ΔF/F0, mean ± SEM, n > 80 cells): 37 ± 7%
inhibition of Ca2+ entry through the plasma membrane after Ca2+ addition, compared with control ([8]; 2 μM Aβ(1-42), 2 h, 37 °C, 3 mM Ca2+ after Tg, ΔF/F0, mean ± SEM, n > 80 cells): 32 ± 6%
SOCE induced by Aβ(1-42) in the absence of Tg ([8]; HT-22 cells, no thapsigargin): did not detect
STIM1 co-immunoprecipitation with anti-Aβ(1-42) antibody [9]: formation of STIM1-Aβ complexes
increase in ROS production compared with untreated cells ([10]; 2 h): 1.3 fold
increase in ROS production compared with untreated cells ([10]; 5 h): 1.7 fold

C[N+](C)(C)CCOC(N)=O [carbachol]
intracellular calcium response in the majority of the cells [11]: almost negligible

ryanodine
increase of ER Ca2+ content (Tg-induced Ca2+ release from stores) versus control without ryanodine ([3]; 100 μM ryanodine, 1 h, 37 °C, control HT-22 cells, 2 μM Tg): about 2.2 fold

CC(=O)OCC[N+](C)(C)C [acetylcholine]
fraction of HT22 cells showing intracellular calcium concentration peaks ([11]; 100 μM acetylcholine, Fluo3-loaded cells): less than 25%
intracellular calcium response in the majority of the cells [11]: almost negligible

Cc1nnsc1C(=O)Nc1ccc(-n2nc(C(F)(F)F)cc2C(F)(F)F)cc1 [BTP2, N-[4-[3,5-bis(trifluoromethyl)pyrazol-1-yl]phenyl]-4-methylthiadiazole-5-carboxamide]
Ca2+ released from the stores after addition of Tg versus control ([8]; 3 μM BTP2, 15 min, control HT-22 cells): no significative difference
decrease of Ca2+ entry through the plasma membrane relative to control without BTP2 ([8]; 3 μM BTP2, 15 min preincubation, 37 °C, control HT-22 cells, mean ± SEM, n > 80 cells): 71 ± 8%

N#CC(C#N)=NNc1ccc(OC(F)(F)F)cc1 [FCCP, trifluoromethoxy carbonylcyanide phenylhydrazone]
mitochondria membrane potential after addition (positive control of depolarization) ([4]; 5 μM FCCP, TMRE-loaded HT-22 cells): large decrease
